Laboratory results published in patent US5958943A, “[A]-anellated pyrrole derivatives and their use in pharmacology” (Merckle GmbH, priority 1994, dated 1999).

Experiments:
[1] = target: T1, 5-lipoxygenase (Bos taurus, UniProt F1MQ78); assay: Inhibition of 5-lipoxygenase (LO), according to Dannhardt et al.; type: biochemical; conditions: Table 1 column IC50 LO/CO, first value
T1 construct: endogenous in cells
T1 sequence (F1MQ78 1-674): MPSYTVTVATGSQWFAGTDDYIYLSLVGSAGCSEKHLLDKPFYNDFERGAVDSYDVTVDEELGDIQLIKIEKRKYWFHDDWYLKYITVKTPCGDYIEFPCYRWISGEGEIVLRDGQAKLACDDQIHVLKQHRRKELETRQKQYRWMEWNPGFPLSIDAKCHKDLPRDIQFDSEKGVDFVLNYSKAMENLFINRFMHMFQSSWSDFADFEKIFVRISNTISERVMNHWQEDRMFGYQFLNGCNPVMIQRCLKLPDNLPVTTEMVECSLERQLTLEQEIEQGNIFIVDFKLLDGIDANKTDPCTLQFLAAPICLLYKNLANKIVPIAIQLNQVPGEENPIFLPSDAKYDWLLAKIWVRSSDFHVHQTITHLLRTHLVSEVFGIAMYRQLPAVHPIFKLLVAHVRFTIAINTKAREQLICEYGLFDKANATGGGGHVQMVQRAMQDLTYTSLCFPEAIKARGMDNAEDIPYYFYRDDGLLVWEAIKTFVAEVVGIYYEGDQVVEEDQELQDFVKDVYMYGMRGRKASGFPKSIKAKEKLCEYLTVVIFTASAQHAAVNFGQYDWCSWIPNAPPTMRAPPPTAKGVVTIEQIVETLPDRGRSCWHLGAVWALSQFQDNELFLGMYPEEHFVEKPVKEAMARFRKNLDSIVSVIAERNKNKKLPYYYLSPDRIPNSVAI
Description: (§1) The efficacy of the compounds according to the invention can be determined from the inhibition of 5-lipoxygenase or cyclooxygenase. Experiments have be carried out according to Dannhardt et al., J. Pharm. Pharmacol. 1992, 44: 419-424.

[2] = test system: mouse; assay: Formalin analgesia test in the mouse p.o.; type: in vivo
Description: The spectrum of efficacy of the compounds was also investigated using the following tests:
2) Formalin analgesia test in the mouse p.o., B. Rubin et al., Endocrinol.,49:429-439, 1951;

[3] = target: T2, cyclooxygenase (Bos taurus, UniProt O62664); assay: Inhibition of cyclooxygenase (CO), according to Dannhardt et al.; type: biochemical; conditions: Table 1 column IC50 LO/CO, second value
T2 construct: endogenous in cells
T2 sequence (O62664 25-600): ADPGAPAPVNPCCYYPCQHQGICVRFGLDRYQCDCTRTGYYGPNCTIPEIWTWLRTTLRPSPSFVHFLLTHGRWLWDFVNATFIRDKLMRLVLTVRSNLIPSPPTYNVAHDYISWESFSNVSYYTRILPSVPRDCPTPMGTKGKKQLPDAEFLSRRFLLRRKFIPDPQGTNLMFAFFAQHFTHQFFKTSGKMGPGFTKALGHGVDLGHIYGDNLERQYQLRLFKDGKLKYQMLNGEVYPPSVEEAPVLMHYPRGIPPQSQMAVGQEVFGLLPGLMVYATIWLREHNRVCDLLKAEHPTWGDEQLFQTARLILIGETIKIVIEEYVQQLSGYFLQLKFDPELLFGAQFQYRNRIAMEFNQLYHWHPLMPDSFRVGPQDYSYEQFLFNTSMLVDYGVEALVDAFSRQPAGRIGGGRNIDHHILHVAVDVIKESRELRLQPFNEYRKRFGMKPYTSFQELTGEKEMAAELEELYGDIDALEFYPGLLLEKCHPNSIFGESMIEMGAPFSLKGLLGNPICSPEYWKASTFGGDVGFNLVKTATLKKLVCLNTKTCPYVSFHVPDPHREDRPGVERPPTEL
Description: as §1

Row | Compound | IC50 [1] [nM] | times more analgesically effective than the corresponding 4-chlorophenyl derivative ([2]; in vivo, compared with the corresponding 4-chlorophenyl derivative) [times] | IC50 [3] [nM] | minimal effective dose ([2]; po, formalin analgesia model of the mouse, comparison compound, read-out: MED) [mg/kg]
1 | CC1(C)Cc2c(-c3ccccc3)c(-c3ccc(Cl)s3)c(CC(=O)O)n2C1 [Example 1] | 400 | 10 | 200 | 
2 | CC1(C)Cc2c(-c3ccccc3)c(-c3ccc(Cl)cc3)c(CC(=O)O)n2C1 [corresponding 4-chlorophenyl derivative, reference compound] |  |  |  | 100
